The source of these data is patent publication US20260234217A1, “USE OF BMP RECEPTOR ALK1 INHIBITORS IN OSTEOARTHRITIS THERAPIES” (The Regents of the University of California, priority 2023, published 2026).

pEC50, pIC50: −log10 of the molar value. “Also recorded” adds a separate entry of the source. Bounds are passed on as bounds.

Experiment [1] concerns BMP-9-induced BMP reporter activity by ALK5-deficient ATDC5 cells. Nature of the experiment: BMP-9-induced BMP signal luciferase reporter in ALK5-deficient chondrocytic cells. The format is cell-based, mouse. As to conditions: in the presence of 2 ng/mL of rhBMP-9; read-out: median effective concentration (EC50) to block BMP activity in vitro. From the text: Ligands that bind to ALK1 at physiological concentrations are BMP9 and BMP10 (Chen et al, PNAS 2013). […] ActRIIB has 300-fold higher affinity for BMP9 than does ActRIIA (Townson et. al., J Biol Chem. 2012 Aug. 10; 287(33):27313-2). The formation of ALK1-ActRIIB complexes is associated with the elevation of levels of pSmad1/5-mediated BMP signaling in cartilage (Wang et al., PNAS 2009)[4]. […] Furthermore, since loss of ALK5 causes OA and ALK5 antagonizes ALK1, these above results provide evidence that blocking ALK1 signaling may prevent OA development.
As described herein, the ALK1 receptor normally binds to ALK5 and/or ActRIIA in healthy chondrocytes, but in OA conditions ALK5 expression levels decline in chondrocytes and ALK1 tends to complex with ActRIIB; this ALK1/ActRIIB complex has high affinity for BMP9 and BMP10. […] BMP signaling output is monitored by a BMP signal luciferase reporter plasmid which contains a Smad1/5/8 response element in the promoter region. The biological efficacy of ALK1 antagonists is measured by their ability to inhibit BMP-9-induced BMP reporter activity by ALK5-deficient chondrocytic cells, such as ALK5-deficient ATDC5 cells. […]
A general note: Reporter assays use an easily measured gene product as a stand-in for the process of interest.

Experiment [2] addresses T1, ALK3 (Homo sapiens, UniProt P36894). Nature of the experiment: kinase assay (biochemical IC50, literature). As to conditions: concentration of 200 nM.
In another experiment the test system is subchondral bone plate. Nature of the experiment: Subchondral bone plate analysis in DMM mice. The format is in vivo, mouse. As to conditions: after DMM surgery. The source says: Dissected knee joints underwent Micro-CT analysis using the Skyscan 1172 in vivo μCT scanner (Bruker micro-CT, Kontich, Belgium) at 55 kV and 181 μA, with a resolution of 10 μm. The raw data was then translated into two-dimensional cross-sectional gray scale image slices using NRecon (Bruker microCT, Kontich, Belgium). Structural parameters were then acquired from the two-dimensional images using a CT Analyzer (CT-AN, v1.10.9.0, Bruker microCT, Kontich, Belgium), including bone volume fraction (BV, mm3). The total knee osteophyte volume from the end of the distal femur to the end of the proximal tibia was compared between knees that underwent sham surgery, DMM surgery treated with PBS, DMM surgery treated with BMP-KI, or DMM surgery treated with ALK1-Fc. Average osteophyte volume was analyzed with Prism 9 Software (GraphPad) using two-way ANOVA and Tukey's multiple comparisons test post-hoc. MicroCT and data analysis was performed by an experienced investigator blinded to genotype/treatment. For each experimental group, five joint sections per animal were analyzed from the medial compartment. […] All quantifications were conducted in Fiji is Just ImageJ (FIJI, version 2.9.0). Quantified subchondral bone thickness was analyzed with Prism 9 Software (GraphPad) using two-way ANOVA and Tukey's multiple comparisons test post-hoc.

The test system of experiment [3] is OA associated pain in DMM mice. Nature of the experiment: Von Frey pain assessment (50% paw withdrawal threshold) in DMM mice. The format is in vivo, mouse. The protocol:
In a functional assessment of BMP-KI and ALK1-Fc, we measured pain and sensitivity in mice following DMM surgery and treatment with BMP-KI and ALK1-Fc using Von Frey analysis. Mice underwent DMM surgery at 3 months of age and were treated with BMP-KI or ALK1Fc once a week for 8 weeks following surgery. Mice underwent Von Frey testing immediately prior to surgery, and each week following surgery. Von Frey testing involved exposure of the injured limb hindfoot plantar surface to a monofilament of a designated caliber (measured in grams). […] The 50% PWT was then calculated mathematically as previously described(54). A higher 50% paw withdrawal threshold indicates less sensitivity in the surgically treated limb. Mice undergoing sham surgery were also tested as a control.
Pain was assessed using the 50% paw withdrawal threshold (PWT) using Von Frey filaments and the up-and-down method as described(86, 87). Each mouse was tested three times by evaluators blinded to treatment group, and the average value was calculated. Whether or not each of the three acquired values is normal is based on the Jarque-Baera test. 4-5 mice were analyzed per treatment condition. Significance was assessed using two-way ANOVA and Tuckey's multiple comparisons test.

In experiment [4] the target is T1, ALK3. As to conditions: kinase assay; cited from earlier work.

T1 sequence (P36894 24-532, species assumed): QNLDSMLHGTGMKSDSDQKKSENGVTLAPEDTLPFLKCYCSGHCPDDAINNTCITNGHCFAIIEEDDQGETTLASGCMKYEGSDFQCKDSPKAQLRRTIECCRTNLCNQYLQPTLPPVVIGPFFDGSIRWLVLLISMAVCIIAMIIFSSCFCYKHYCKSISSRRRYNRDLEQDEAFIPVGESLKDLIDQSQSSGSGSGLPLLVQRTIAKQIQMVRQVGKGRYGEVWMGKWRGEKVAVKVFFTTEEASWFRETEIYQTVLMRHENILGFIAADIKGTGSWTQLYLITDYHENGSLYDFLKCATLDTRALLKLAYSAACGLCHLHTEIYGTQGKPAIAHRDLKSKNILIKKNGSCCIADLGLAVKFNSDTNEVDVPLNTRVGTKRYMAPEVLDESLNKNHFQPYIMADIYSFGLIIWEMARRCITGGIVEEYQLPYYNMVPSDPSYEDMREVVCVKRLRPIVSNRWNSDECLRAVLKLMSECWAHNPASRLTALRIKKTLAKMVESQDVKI

As usually defined, the pIC50 is the negative decadic logarithm of the IC50, by convention in mol/L. Consider `COc1cc(-c2cc(-c3ccc(N4CCNCC4)cc3)cnc2C)cc(OC)c1OC` [LDN-214117], for which the pEC50 in experiment [1] was 7.40. Moreover, at ALK3 [2], the “effect on ALK3 at the injected concentration” value was less than 25 % IC50. Besides, in the experiment on subchondral bone plate (week 8, microCT), the “total volume of the subchondral plates” value is given as “no significant impact”. In the experiment with subchondral bone plate (week 8, listed as BMP-KI), the “thickness (thickening) of the subchondral bone plate” value is reported as “no significant impact; also recorded: no observed effect”. For the same molecule, the “pain (Von Frey 50% paw withdrawal threshold)” value in experiment [3] (week 6 after surgery, vs DMM control) is “did not exhibit an increase in pain”. In addition, in experiment [3] (week 8), the “pain (Von Frey) compared to mice that had received sham surgery” value is listed as “no significant difference”. The pIC50 at ALK3 [4] was 5.93.
